From article PMC12111564, “Extended Family of Thiophosphoryl-Appended Pd(II) Pincer Complexes with a Deprotonated Amide Core: Synthesis and Biological Evaluation” (International Journal of Molecular Sciences, 2025)

Experiments:
[1] = system: human colorectal carcinoma (HCT116); assay: MTT cytotoxicity assay, HCT116; assay type: cell-based; conditions: 48 h exposure, read-out: IC50 ± SD, HCT116
Experimental: (§1) The cytotoxic activity of the complexes obtained was screened against several human solid and hematopoietic cancer cell lines using the conventional MTT assay. To evaluate their selectivity for cancerous over non-cancerous cells, analogous tests were performed with pseudonormal human embryonic kidney (HEK293) and breast epithelial (HBL100) cell lines.
(§2) The cytotoxicity of the compounds obtained was investigated on human colorectal carcinoma (HCT116), breast cancer (MCF7), prostate adenocarcinoma (PC3), glioblastoma (U251), ovarian adenocarcinoma (Scov3), chronic myelogenous leukemia (K562 and K562/iS9), multiple plasmacytoma (AMO1), and acute lymphoblastic leukemia (H9) cell lines, as well as human embryonic kidney (HEK293) and mammary epithelial (HBL100 and HBL100/Dox) cells used as non-cancerous cell lineages. All the cell lines were obtained from American Type Culture Collection (ATCC). The tested compounds were initially dissolved in DMSO. Cisplatin was obtained from a commercial source (as an infusion concentrate in natural saline solution). The experiments were performed using the conventional MTT assay (ICN Biomedicals, Eschwege, Germany) according to the previously published procedure.

[2] = system: breast cancer (MCF7); assay: MTT cytotoxicity assay, MCF7; assay type: cell-based, human; conditions: 48 h exposure, read-out: IC50 ± SD, MCF7
Experimental: as §1, §2

[3] = system: prostate adenocarcinoma (PC3); assay: MTT cytotoxicity assay, PC3; assay type: cell-based, human; conditions: 48 h exposure, read-out: IC50 ± SD, PC3
Experimental: as §1, §2

[4] = system: human embryonic kidney (HEK293); assay: MTT cytotoxicity assay, HEK293; assay type: cell-based; conditions: 48 h exposure, non-cancerous cells, read-out: IC50 ± SD, HEK293
Experimental: as §1, §2

[5] = system: mammary epithelial cells HBL100; assay: MTT cytotoxicity assay, HBL100; assay type: cell-based, human; conditions: 48 h exposure, non-cancerous cells, read-out: IC50 ± SD, HBL100
Experimental: as §1, §2

[6] = system: doxorubicin-resistant mammary epithelial cells HBL100/Dox; assay: MTT cytotoxicity assay, HBL100/Dox; assay type: cell-based, human; conditions: 48 h exposure, doxorubicin-resistant clone, read-out: IC50 ± SD, HBL100/Dox
Experimental: as §1, §2

[7] = system: chronic myelogenous leukemia (K562); assay: MTT cytotoxicity assay, K562; assay type: cell-based, human; conditions: 48 h exposure, read-out: IC50 ± SD, K562
Experimental: as §1, §2

[8] = system: doxorubicin-resistant subline of chronic myelogenous leukemia cells (K562/iS9); assay: MTT cytotoxicity assay, K562/iS9; assay type: cell-based, human; conditions: 48 h exposure, read-out: IC50 ± SD, K562/iS9
Experimental: as §1, §2

[9] = system: multiple plasmacytoma (AMO1); assay: MTT cytotoxicity assay, AMO1; assay type: cell-based, human; conditions: 48 h exposure, read-out: IC50 ± SD, AMO1
Experimental: as §1, §2

[10] = system: acute lymphoblastic leukemia (H9); assay: MTT cytotoxicity assay, H9; assay type: cell-based, human; conditions: 48 h exposure, read-out: IC50 ± SD, H9
Experimental: as §1
as §2, with “Cisplatin was obtained from a commercial source (as an infusion concentrate in natural saline solution).” left out

[11] = system: glioblastoma (U251); assay: MTT cytotoxicity assay, U251; assay type: cell-based, human
Experimental: as §1, §2

[12] = system: ovarian adenocarcinoma (Scov3); assay: MTT cytotoxicity assay, Scov3; assay type: cell-based, human
Experimental: as §1, §2

[13] = Stability in DMSO solution by 31P NMR monitoring; assay type: physicochemical; conditions: at least for several days
Source text: The identities and structures of both free amides 2–8 and their cyclopalladated derivatives were unambiguously confirmed based on the IR and multinuclear NMR spectroscopic data (including different 2D NMR techniques), as well as elemental analyses, which are presented in detail in Section 3 (Materials and Methods) and Figures S1–S31 in the Supporting Information (SI). The realization of metalation of the central secondary amide unit in the resulting complexes was supported by the lack of NH proton singlets in the ^1H NMR spectra, as well as the absence of amide II and amide A bands in the IR spectra. The coordination of the thiophosphoryl pendant arm was evidenced by a strong downfield shift of the phosphorus resonance (ΔδP = 8.1–17.4 ppm) and the displacement of the P=S bond stretches towards lower frequencies, which reached up to 65 cm^−1. The coordination of the additional N- or S-donor unit was indirectly indicated by considerable shifts of the signals of CH/CH3 protons or quaternary carbon nuclei located in the close proximity to the heteroatom (for example, ΔδH for the methyl substituent in the thioether group of 13a,b was more than 0.65 ppm, while a coordination shift of the proton signal, corresponding to the CH unit adjacent to the nitrogen atom of the pyridine ring of 9, composed 0.45 ppm).

[14] = system: Bacillus subtillis (VKM B-501); assay: Agar well diffusion, B. subtillis; assay type: cell-based
Experimental: (§3) The microbial strains Bacillus subtillis (VKM B-501), Micrococcus luteus (VKM Ac-2230), and Groenewaldozyma auringiensis (VKM Y-2927) were used for antimicrobial activity tests. All strains were obtained from the All-Russian Collection of Microorganisms (VKM) at the Skryabin Institute of Biochemistry and Physiology of Microorganisms, Pushchino Scientific Center of Biological Research. B. subtilis and M. luteus were grown on the following medium (g/L): aminopeptide 60 mL; tryptone 5.0 g; yeast extract 1.0 g; soybean extract 30 mL; bacto-agar 15.0 g; final pH 7.2. G. auringiensis was grown on malt extract medium containing the following medium (g/L): malt extract 12.75; dextrin 2.75; glycerol 2.35; gelatin peptone 0.78; bacto-agar 15; final pH 5.4. The antimicrobial activity of ligand 17 and its cyclopalladated derivative 18 (both in the racemic form) was studied by the agar well diffusion method. The overnight grown culture of each strain (100 µL) was applied to the surface of the solid medium, then spread on agar plates using a glass spreader, and left for 30 min. The wells were cut in the culture plates using a sterilized glass tube (4 mm in diameter), and each compound sample was dissolved in DMSO to a final concentration of 0.25 or 2.5 mM (10 µL) and was placed in each well. After this, the plates were kept at room temperature for 3 h to improve the diffusion of the compounds and incubated at 28 °C for 24 h. DMSO (15%) was used as a negative control, while kanamycin (50 mg/mL) was used as a positive control. The antimicrobial activity was determined by measuring the inhibition zone around each well as a mean of three replicates.

[15] = system: Micrococcus luteus (VKM Ac-2230); assay: Agar well diffusion, M. luteus; assay type: cell-based
Experimental: as §3

[16] = system: Groenewaldozyma auringiensis (VKM Y-2927); assay: Agar well diffusion, G. auringiensis; assay type: cell-based
Experimental: as §3

[17] = system: doxorubicin-resistant mammary epithelial cells HBL100/Dox; conditions: cited from earlier work
[18] = system: doxorubicin-resistant subline of chronic myelogenous leukemia cells (K562/iS9); conditions: cited from earlier work
[19] = agar well diffusion, 0.25 or 2.5 mM, racemic form

Row | Compound | IC50 [1] | IC50 [2] | IC50 [3] | IC50 [4] | IC50 [5] | IC50 [6] | IC50 [7] | IC50 [8] | IC50 [9] | IC50 [10] | further results
1 | O=C1c2cc(Cl)cc[n+]2[Pd-2]2([Cl])[S+]=P(c3ccccc3)(c3ccccc3)C(c3ccccc3)[N]12 (racemic) [Compound 9, [κ^3-S,N,N-(L)Pd(II)Cl] complex] | 7 ± 0.5 µM | 6.2 ± 2 µM | 8 ± 0.5 µM | 10 ± 4 µM | 6.5 ± 1.5 µM | 10.5 ± 1.5 µM | 8 ± 1.5 µM | 6.2 ± 1.8 µM | 2.4 ± 0.6 µM | 3.2 ± 0.4 µM | IC50 [11]: 9 ± 1 µM; IC50 [12]: 8 ± 0.7 µM; stability in solution (DMSO) [13]: stable in solution
2 | O=C1c2ccc3ccccc3[n+]2[Pd-2]2([Cl])[S+]=P(c3ccccc3)(c3ccccc3)C(c3ccccc3)[N]12 (racemic) [Compound 10a, [κ^3-S,N,N-(L)Pd(II)Cl] complex] | 22 ± 2 µM | > 65 µM | 33 ± 3 µM | 15 ± 4 µM | > 60 µM | > 60 µM |  |  |  |  | 
3 | O=C1c2sc3ccccc3[n+]2[Pd-2]2([Cl])[S+]=P(c3ccccc3)(c3ccccc3)C(c3ccccc3)[N]12 (racemic) [Compound 12, [κ^3-S,N,N-(L)Pd(II)Cl] complex] | 11.3 ± 3.1 µM | 19 ± 4.2 µM | 10 ± 2.8 µM | 6.5 ± 2.2 µM | 12 ± 3.5 µM | 6.7 ± 1.5 µM | 4.2 ± 0.8 µM | 2 ± 0.4 µM | 3.7 ± 0.7 µM | 2.2 ± 0.7 µM | 
4 | C[S+]1CC(=O)[N]2C(c3ccccc3)P(c3ccccc3)(c3ccccc3)=[S+][Pd-2]21[Cl] (racemic) [Compound 13a, [κ^3-S,N,S-(L)Pd(II)Cl] complex] | 17 ± 2 µM | 31 ± 6 µM | 30 ± 2.5 µM | 22 ± 6 µM | 32 ± 6 µM | 54 ± 5.6 µM | 14.2 ± 2.2 µM | 15.2 ± 1.8 µM | 4.2 ± 0.3 µM | 4 ± 0.6 µM | 
5 | C[S+]1c2ccccc2C(=O)[N]2C(c3ccccc3)P(c3ccccc3)(c3ccccc3)=[S+][Pd-2]21[Cl] (racemic) [Compound 14, [κ^3-S,N,S-(L)Pd(II)Cl] complex] | 4.5 ± 1.1 µM | 9.2 ± 0.9 µM | 4.2 ± 1.4 µM | 4.9 ± 1.5 µM | 8.4 ± 0.5 µM | 2.1 ± 0.3 µM | 2.1 ± 0.2 µM | 1.7 ± 0.2 µM | 1.2 ± 0.3 µM | 2.3 ± 0.5 µM | 
6 | O=C1c2ccc3ccccc3[n+]2[Pd-2]2([Cl])[S+]=P(c3ccccc3)(c3ccccc3)C[N]12 (stereo not shown) [Compound 10b, [κ^3-S,N,N-(L)Pd(II)Cl] complex] | 14 ± 4 µM | 31 ± 2 µM | 23 ± 1 µM | 20 ± 4 µM | 34.2 ± 2.8 µM | 46 ± 1.4 µM |  |  |  |  | stability in solution (DMSO) [13]: stable in solution
7 | O=C1c2cccc3ccc[n+](c23)[Pd-2]2([Cl])[S+]=P(c3ccccc3)(c3ccccc3)C[N]12 (stereo not shown) [Compound 11, [κ^3-S,N,N-(L)Pd(II)Cl] complex] | 18 ± 2 µM | 46 ± 4 µM | 31 ± 1 µM | 41 ± 4 µM | 29 ± 5 µM | 41 ± 1 µM |  |  |  |  | 
8 | C[S+]1CC(=O)[N]2CP(c3ccccc3)(c3ccccc3)=[S+][Pd-2]21[Cl] (stereo not drawn) [Compound 13b, [κ^3-S,N,S-(L)Pd(II)Cl] complex] | 23 ± 7 µM | 40 ± 5 µM | 30 ± 2 µM | 34 ± 2 µM | 52 ± 4 µM | > 60 µM |  |  |  |  | 
9 | CC(C)C(NC(=O)c1ccccn1)P(=S)(c1ccccc1)c1ccccc1 (stereo not shown) [Compound 17] |  |  |  |  |  |  |  |  |  |  | inhibitory effect on microorganisms, B. subtillis [14, 19]: did not exert any inhibitory effect; inhibitory effect on microorganisms, M. luteus [15, 19]: did not exert any inhibitory effect; inhibitory effect on microorganisms, G. auringiensis [16, 19]: did not exert any inhibitory effect
10 | NC[C@H]1O[C@H](O[C@H]2[C@H](O)[C@@H](O[C@H]3O[C@H](CO)[C@@H](O)[C@H](N)[C@H]3O)[C@H](N)C[C@@H]2N)[C@H](O)[C@@H](O)[C@@H]1O [Km, kanamycin, reference compound] |  |  |  |  |  |  |  |  |  |  | Inhibition Zone, B. subtillis (VKM B-501) ([14]; 50 mg/mL, positive control): 10.0 ± 0.8 mm; Inhibition Zone, M. luteus (VKM Ac-2230) ([15]; 50 mg/mL, positive control): 15.0 ± 1.0 mm; Inhibition Zone, G. auringiensis (VKM Y-2927) ([16]; 50 mg/mL, positive control): 0 mm
11 | N.N.[Cl][Pt][Cl] [cisplatin, reference compound] | 18 ± 2 µM | 25 ± 4 µM | 16 ± 3 µM | 12.5 ± 1.5 µM | 14.6 ± 3.6 µM | 23.6 ± 3.6 µM | 15.5 ± 0.5 µM | 16 ± 2 µM | 3.2 ± 0.6 µM |  | 
12 | COc1cccc2c1C(=O)c1c(O)c3c(c(O)c1C2=O)C[C@@](O)(C(=O)CO)C[C@@H]3O[C@H]1C[C@H](N)[C@H](O)[C@H](C)O1 [doxorubicin] |  |  |  |  |  |  |  |  |  |  | times less active against the resistant clone (HBL100/Dox vs HBL100) [17]: more than 80 times; factor of decrease in efficiency, K562/iS9 vs parental K562 [18]: 20
